{
  "source": "paper PMC11858597",
  "about": "“Synthesis, Anticancer Screening, and In Silico Evaluations of Thieno[2,3-c]pyridine Derivatives as Hsp90 Inhibitors” (Pharmaceuticals, 2025)",
  "key": {"T47D": {"test_system": "T47D", "assay": "MTT assay, T47D breast cancer cells", "assay_type": "cell-based", "settings": "Homo sapiens, 72 h", "from_the_text": "(§1) An MTT assay was used to evaluate the final compounds’ anticancer activity against MCF7 and T47D (breast cancer cells), HSC3 (head and neck cancer cells), and RKO (colorectal cancer cells) cell lines, using cisplatin as a reference standard. Table 1 presents the percentage growth inhibition of all compounds against the various cancer cell lines.\n(§2) The cancer cell lines MCF7 and T47D (breast cancer cells), HSC3 (head and neck cancer cells), and RKO (colorectal cancer cells) were kindly provided by Prof. Stephan Feller, Institute of Molecular Medicine, Martin Luther University, Halle, Germany. The human fibroblast (PDL) cell line was obtained as a kind gift from Prof. Khaled Al-Qaoud (Yarmouk University, Irbid, Jordan). All cell lines were cultured in Dulbecco’s Modified Eagle’s Medium (DMEM) supplemented with 10% fetal bovine serum, 100 µg/mL streptomycin, 100 U/mL penicillin, and 1% non-essential amino acid at 37 °C with 5% CO2 in a humidified CO2 incubator. The cell cultures were grown to confluence, and the medium was changed two times weekly.\n(§3) The MTT (3-[4,5-dimethylthiazol-2-yl]-2,5-diphenyl tetrazolium bromide) assay was used to investigate cell viability and to calculate the half-maximal inhibitory concentration (IC50) values of the compounds 6(a–k) including standard reference cisplatin. Furthermore, […] stock solutions of the compounds were prepared in DMSO where all compounds were completely soluble. Cells were seeded in 96-well tissue culture plates at a density of 6,000 cells/well for MCF7, T47D, and PDL cells and at a density of 4000 cells/well for RKO and HSC3 cells. After 24 h of seeding, investigated cells were treated with three concentrations (1, 10, and 100 µm) of the compounds for 72 h. At the end of the treatment time, the supernatant medium was aspirated, and 50 µL of fresh DMEM containing MTT (0.5 mg/mL) was added to each well. Cells were then incubated at 37 °C for 2–4 h. After that, the medium was completely removed, and 50 µL of DMSO was added to each well to dissolve the precipitated formazan crystals formed by viable cells. Cell viability, represented by the absorbance of the formazan solution, was measured at 570 nm using the Synergy HTX Multimode Reader (BioTek, Vermont, USA), and cell viability was determined as described in the literature. For each concentration, the relative cell viability was calculated as follows: relative cell viability = (mean treatment absorbance/mean control absorbance) × 100%. Assays were performed in triplicate on three independent experiments. […] IC50 values were then calculated using the four-parameter logistic function in the SigmaPlot software (version 12.5) and presented as the mean ± SD from three independent experiments."}, "PDL": {"test_system": "PDL", "assay": "MTT assay, normal fibroblast cell line (PDL)", "assay_type": "cell-based, human", "settings": "72 h", "from_the_text": "To understand the selectivity of compounds, a normal fibroblast cell line (human periodontal ligament-PDL) is also included in this IC50 determination.\nas §2, §3"}, "RKO": {"test_system": "RKO", "assay": "MTT assay, RKO colorectal cancer cells", "assay_type": "cell-based", "settings": "Homo sapiens, 72 h", "from_the_text": "as §1, §2, §3"}, "RKO cells [1]": {"test_system": "RKO cells", "assay": "Cell cycle analysis (PI staining), RKO", "assay_type": "cell-based", "settings": "IC50 concentration, 72 h", "method": "(§4) In a subsequent set of experiments, we aimed to evaluate the effect of compound 6i on the cell cycle. Treatment with 6i led to a significant accumulation of HSC3 and RKO cells in the G2 phase (HSC3: control, 34.6% ± 3.2% vs. 6i, 46.4% ± 3.6%; RKO: control, 34.5% ± 2.9% vs. 6i, 64.2% ± 3.5%).\n(§5) The supernatant with the floating dead cells and the attached cells from each well were collected and fixed in cold ethanol at −20 °C for 30 min [69]. Cells were stained with a Propidium iodide (PI) working solution (1 µg/mL PI and 10 µg/mL RNase A in PBS) for 30 min at 37 °C in the dark and then washed with PBS. Cell fluorescence was measured using the FACS Accuri C6 Plus (BD BIOSCIENCES, Franklin Lakes, NJ, USA) flow cytometer. Histograms of cell counts versus […] fluorescence were generated, and the distribution of cells throughout several cell cycle stages was assessed based on the mean fluorescence intensity values. About 10,000 events were examined utilizing FlowJo software (version 10)."}, "HSC3 cells [2]": {"test_system": "HSC3 cells", "assay": "Cell cycle analysis (PI staining), HSC3", "assay_type": "cell-based", "settings": "HSC3, IC50 concentration, 72 h", "method": "as §4, §5"}, "MCF7": {"test_system": "MCF7", "assay": "MTT assay, MCF7 breast cancer cells", "assay_type": "cell-based", "from_the_text": "as §1, §2, §3"}, "HSC3": {"test_system": "HSC3", "assay": "MTT assay, HSC3 head and neck cancer cells", "assay_type": "cell-based", "from_the_text": "as §1, §2, §3"}, "RKO cells [3]": {"test_system": "RKO cells", "assay": "Apoptosis evaluation by Annexin V/PI staining, RKO", "assay_type": "cell-based", "settings": "IC50 concentration, 72 h", "method": "(§6) To further examine the processes responsible for reduced cell viability, apoptosis was evaluated by Annexin V/Propidium Iodide (PI) double staining, as outlined in the experimental section by considering the best active compound 6i. […] Annexin V/PI staining detects very little increase in Annexin-positive cells; 6i-treated cells were stained with Annexin V and PI for fluorescence-activated cell sorting (FACS) analysis. The results establish that 6i may promote cell death by processes distinct from apoptosis, deserving further investigation into alternative pathways, such as autophagy or ferroptosis.\n(§7) Floating dead cells and the attached cells were collected, washed with PBS, and resuspended in 100 μL of Annexin V solution for 30 min according to the manufacturer’s instruction (Annexin V-FITC Kit, Miltenyi Biotec, Gaithersburg, MD, USA, Catalog Number 130-092-052). After Annexin V staining, cells were stained shortly with PI to exclude the dead cells. The quantitative analysis for apoptosis was performed by FACS Accuri C6 Plus (BD BIOSCIENCES, Franklin Lakes, NJ, USA) flow cytometer. About 10,000 events were analyzed using the FlowJo software (version 10)."}, "HSC3 cells [4]": {"test_system": "HSC3 cells", "assay": "Apoptosis evaluation by Annexin V/PI staining, HSC3", "assay_type": "cell-based", "settings": "HSC3, IC50 concentration, 72 h", "method": "as §6, §7"}, "Hsp90": {"test_system": "Hsp90", "set-up": "method as in PMID 20371713", "settings": "against breast cancer; read-out: Hsp90 inhibition IC50; cited from earlier work"}, "[5]": {"settings": "1 µM, read-out: % cell growth inhibition"}, "[6]": {"settings": "10 µM, read-out: % cell growth inhibition"}, "[7]": {"settings": "100 µM, read-out: % cell growth inhibition"}},
  "data": [
    {"smiles": "CCOC(=O)c1c(NC(=O)CN2CCSCC2)sc2c1CCN(C(=O)OCC)C2", "note": "[6i, Diethyl 2-(2-thiomorpholinoacetamido)-4,7-dihydrothieno[2,3-c]pyridine-3,6(5H)-dicarboxylate]", "values": [
      {"measurement": "inhibition at 1 µM", "setting": "T47D; [5]", "result": 1.9, "unit": "%"},
      {"measurement": "inhibition at 10 µM", "setting": "T47D; [6]", "result": 35.3, "unit": "%"},
      {"measurement": "inhibition at 100 µM", "setting": "T47D; [7]", "result": 83.9, "unit": "%"},
      {"measurement": "IC50", "setting": "T47D", "result": "11.7 ± 1.1", "unit": "µM"},
      {"measurement": "IC50", "setting": "PDL; Homo sapiens, Fibroblast, PDL normal fibroblasts", "result": "> 100", "unit": "µM"},
      {"measurement": "toxicity to normal fibroblast cell lines, PDL", "setting": "PDL; PDL", "result": "no toxicity"},
      {"measurement": "inhibition at 1 µM", "setting": "RKO; [5]", "result": 5.17, "unit": "%"},
      {"measurement": "inhibition at 10 µM", "setting": "RKO; [6]", "result": 55.4, "unit": "%"},
      {"measurement": "inhibition at 100 µM", "setting": "RKO; [7]", "result": 92.5, "unit": "%"},
      {"measurement": "IC50", "setting": "RKO", "result": "12.4 ± 1.9", "unit": "µM"},
      {"measurement": "cells in the G2 phase", "setting": "RKO cells [1]; control 34.5% ± 2.9%", "result": "64.2% ± 3.5%"},
      {"measurement": "proportion of cells in the G1 and S phases", "setting": "RKO cells [1]; vs control", "result": "markedly reduced"},
      {"measurement": "proportion of cells in the G1 and S phases", "setting": "HSC3 cells [2]; vs control", "result": "markedly reduced"},
      {"measurement": "cells in the G2 phase", "setting": "HSC3 cells [2]; control 34.6% ± 3.2%", "result": "46.4% ± 3.6%"},
      {"measurement": "IC50", "setting": "MCF7; Homo sapiens, MCF7, 72 h", "result": "16.4 ± 0.2", "unit": "µM"},
      {"measurement": "inhibition at 1 µM", "setting": "MCF7; Homo sapiens, MCF7, 1 µM, 72 h, read-out: % cell growth inhibition", "result": 1.53, "unit": "%"},
      {"measurement": "inhibition at 10 µM", "setting": "MCF7; Homo sapiens, MCF7, 10 µM, 72 h, read-out: % cell growth inhibition", "result": 39.1, "unit": "%"},
      {"measurement": "inhibition at 100 µM", "setting": "MCF7; Homo sapiens, MCF7, 100 µM, 72 h, read-out: % cell growth inhibition", "result": 95.3, "unit": "%"},
      {"measurement": "% cell growth inhibition", "setting": "MCF7; MCF7, 1 µM, 72 h", "result": "weak inhibition"},
      {"measurement": "% cell growth inhibition", "setting": "HSC3; HSC3, 100 µM, 72 h, 100 µM", "result": 94.04, "unit": "%"},
      {"measurement": "inhibition at 1 µM", "setting": "HSC3; Homo sapiens, HSC-3, 72 h, HSC3, 1 µM, 72 h, read-out: % cell growth inhibition", "result": 14.8, "unit": "%"},
      {"measurement": "inhibition at 10 µM", "setting": "HSC3; Homo sapiens, HSC-3, 72 h, HSC3, 10 µM, 72 h, read-out: % cell growth inhibition", "result": 62.3, "unit": "%"},
      {"measurement": "inhibition at 100 µM", "setting": "HSC3; Homo sapiens, HSC-3, 72 h, HSC3, 100 µM, 72 h, read-out: % cell growth inhibition", "result": 94, "unit": "%"},
      {"measurement": "IC50", "setting": "HSC3; Homo sapiens, HSC-3, HSC3, 72 h", "result": "10.8 ± 3.9", "unit": "µM"},
      {"measurement": "proportion of apoptotic cells with positive Annexin V staining", "setting": "RKO cells [3]", "result": "significantly lower"},
      {"measurement": "proportion of apoptotic cells with positive Annexin V staining", "setting": "HSC3 cells [4]", "result": "significantly lower"}
    ]},
    {"smiles": "CCNC(=O)c1cc2c(-c3cc(OCCN4CCCC4)c(Cl)cc3Cl)nc(N)nc2s1", "note": "[NVP-BEP800]", "values": [
      {"measurement": "IC50", "setting": "Hsp90", "result": 0.058, "unit": "µM"}
    ]}
  ]
}
